Experimental data: ChEMBL document CHEMBL2074106, “Molecular cloning and tissue distribution of rat peptide transporter PEPT2” (Biochim Biophys Acta, 1996)

Molecular target: T1, Solute carrier family 15 member 2 (Rattus norvegicus) (UniProt Q63424)
T1 sequence (whole entry): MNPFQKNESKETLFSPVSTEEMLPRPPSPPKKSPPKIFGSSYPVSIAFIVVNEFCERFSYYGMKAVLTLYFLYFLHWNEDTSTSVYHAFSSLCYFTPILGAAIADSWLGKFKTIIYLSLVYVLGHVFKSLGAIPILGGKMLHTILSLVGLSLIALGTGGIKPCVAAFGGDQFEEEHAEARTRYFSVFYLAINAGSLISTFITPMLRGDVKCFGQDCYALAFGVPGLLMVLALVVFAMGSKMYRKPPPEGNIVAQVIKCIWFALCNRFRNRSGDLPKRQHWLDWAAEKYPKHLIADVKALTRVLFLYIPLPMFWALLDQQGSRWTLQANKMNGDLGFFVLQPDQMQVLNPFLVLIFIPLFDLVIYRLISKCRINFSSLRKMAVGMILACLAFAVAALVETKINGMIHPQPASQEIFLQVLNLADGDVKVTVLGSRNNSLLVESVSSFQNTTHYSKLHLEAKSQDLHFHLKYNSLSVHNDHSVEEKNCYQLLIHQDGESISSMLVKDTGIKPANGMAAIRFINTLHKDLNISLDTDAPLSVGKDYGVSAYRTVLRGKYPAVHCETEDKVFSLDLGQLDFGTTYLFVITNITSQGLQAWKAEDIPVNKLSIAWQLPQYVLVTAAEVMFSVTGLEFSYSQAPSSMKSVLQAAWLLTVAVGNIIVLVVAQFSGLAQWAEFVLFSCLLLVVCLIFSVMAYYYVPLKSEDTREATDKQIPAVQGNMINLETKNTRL
Test: TP_TRANSPORTER: uptake in Xenopus laevis oocytes
Assay type: functional, cell-based
Conditions: Oocyte

Activity: substrate [+]
Compound: CC(C)C[C@H](NC(=O)[C@@H](O)[C@H](N)Cc1ccccc1)C(=O)O
